Measured values published in patent US7049289B1, “Labelled glutamine and lysine analogues” (Amersham PLC, priority 1998, dated 2006).
Where no end group is shown, it is not given here. code Z = not defined here

Tests used:
[1] = Incorporation into clots induced in a rat model (rat inferior vena cava model); type: in vivo, rat (Male Wistar); settings: for % id/g (clot) / Rel. Conc. (cpm/g of clot by dose/g animal): sacrificed after 60 min
Description: The rats (Male Wistar, 250–350 g) were anaesthetised with 15% urethane. After laparotomy, the vena cava was isolated and freed of surrounding fat tissue. […] The compounds were injected 5 min (fresh clot) and 60 min (aged clot) post-induction. After 60 min the animals were sacrificed and the clot removed, weighed and counted. Other tissues e.g. blood, lung, heart, were also dissected and counted. The uptake of tracer into the clot was determined as the relative concentration (cpm/g of clot by dose/g animal) and clot to background tissue.

[2] = biological target: T1, fibrin (in vitro human plasma clot) (Homo sapiens, UniProt P02671+P02675+P02679); assay: Incorporation into human plasma clots in vitro; type: biochemical; settings: for % specific uptake: % retained (with thrombin) - % retained (no thrombin); for % retained (no thrombin): control without thrombin and calcium chloride (non-specific binding); for % retained (with thrombin): human plasma clot, 60 minutes, ca. 20° C.
T1 construct: about 400 μl of human plasma containing the radiolabelled substrate; from tissue; host or cells: human plasma, clotted in vitro with added thrombin and calcium chloride
T1 sequence (P02671 20-644 isoform P02671-2 limits assumed): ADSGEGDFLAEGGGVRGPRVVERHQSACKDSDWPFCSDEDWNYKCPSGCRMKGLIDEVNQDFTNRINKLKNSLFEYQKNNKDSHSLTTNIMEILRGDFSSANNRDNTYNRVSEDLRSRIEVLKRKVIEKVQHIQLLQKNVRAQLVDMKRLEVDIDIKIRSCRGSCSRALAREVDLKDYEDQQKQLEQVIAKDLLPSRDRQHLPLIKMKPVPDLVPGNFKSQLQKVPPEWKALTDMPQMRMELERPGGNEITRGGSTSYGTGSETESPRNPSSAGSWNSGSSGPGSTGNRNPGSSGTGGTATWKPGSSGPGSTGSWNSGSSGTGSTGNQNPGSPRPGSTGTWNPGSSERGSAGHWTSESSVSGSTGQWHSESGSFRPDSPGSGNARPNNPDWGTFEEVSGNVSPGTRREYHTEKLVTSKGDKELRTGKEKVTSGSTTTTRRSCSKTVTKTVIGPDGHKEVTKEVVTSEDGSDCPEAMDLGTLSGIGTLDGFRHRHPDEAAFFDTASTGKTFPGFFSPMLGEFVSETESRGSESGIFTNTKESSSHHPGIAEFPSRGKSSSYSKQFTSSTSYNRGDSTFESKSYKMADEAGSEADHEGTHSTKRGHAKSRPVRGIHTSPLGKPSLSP
T1 sequence (P02675 45-491 limits assumed): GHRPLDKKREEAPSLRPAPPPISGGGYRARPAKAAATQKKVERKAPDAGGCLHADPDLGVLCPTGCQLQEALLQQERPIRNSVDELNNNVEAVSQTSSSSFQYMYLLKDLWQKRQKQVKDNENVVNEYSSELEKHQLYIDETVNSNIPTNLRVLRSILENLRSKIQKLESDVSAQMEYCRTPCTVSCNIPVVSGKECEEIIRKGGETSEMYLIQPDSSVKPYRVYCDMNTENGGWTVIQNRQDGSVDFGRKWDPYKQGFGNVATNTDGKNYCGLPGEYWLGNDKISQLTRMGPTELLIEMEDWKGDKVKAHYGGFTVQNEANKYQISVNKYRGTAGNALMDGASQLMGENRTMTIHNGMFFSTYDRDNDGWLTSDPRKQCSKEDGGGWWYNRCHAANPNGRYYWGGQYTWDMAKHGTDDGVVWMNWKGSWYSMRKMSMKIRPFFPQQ
T1 sequence (P02679 27-437 isoform P02679-2 limits assumed): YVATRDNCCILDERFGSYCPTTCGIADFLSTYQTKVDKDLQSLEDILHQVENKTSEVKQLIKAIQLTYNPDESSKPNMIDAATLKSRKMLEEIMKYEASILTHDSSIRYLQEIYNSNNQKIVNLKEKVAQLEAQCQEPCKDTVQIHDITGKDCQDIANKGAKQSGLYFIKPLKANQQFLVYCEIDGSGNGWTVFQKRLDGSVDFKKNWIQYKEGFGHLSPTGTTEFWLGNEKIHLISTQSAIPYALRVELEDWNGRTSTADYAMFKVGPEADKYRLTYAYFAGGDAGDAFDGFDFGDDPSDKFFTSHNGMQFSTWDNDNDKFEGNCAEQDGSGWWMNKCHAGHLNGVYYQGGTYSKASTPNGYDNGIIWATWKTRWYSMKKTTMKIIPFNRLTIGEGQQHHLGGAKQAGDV
Description: Incorporation of radiolabelled substrates into fibrin was investigated by induction of an in vitro human plasma clot in the following manner. To a siliconised 5 ml glass vial was added, (a) 800 μl of Tris(hydroxymethyl)aminomethane buffered saline pH 7.5 containing calcium chloride (50 mM Tris, 150 mM sodium chloride, 4 mM calcium chloride.), (b) about 40 μl of physiological salt solution containing 100 units of thrombin per ml, (c) about 400 μl of human plasma containing the radiolabelled substrate at a concentration of typically 10 kBq/ml. To aid induction of clot a roughened glass rod was added to the reaction vial. Control vials were prepared similarly but with the omission of thrombin and calcium chloride.
After incubation of the test solution at ambient laboratory temperature (ca. 20° C.) for 60 minutes the reaction was discontinued with the addition of about 400 μl of a cold solution of 33.5 mM ethylenediaminetetra-acetic acid disodium salt. Clots were separated from serum by vacuum filtration onto […] nitrocellulose filters (pre-soaked in 1.5% BSA/tris(hydroxymethyl)aminoethae buffered saline pH 7.5 containing 0.1% Tween 20) and washed with about 2×10 ml of tris(hydroxymethyl)aminomethane buffered saline pH 7.5 containing Tween 20 to a final concentration of 0.1% v/v. The proportion of total radioactivity was calculated by counting in suitable detection apparatus.
The fraction of radioactivity retained on the filter, after subtraction of the non-specific binding determined from the control, is a measure of incorporation into the filtered clots.

[3] = Aged Clots: injected 60 min post-induction
[4] = Fresh Clots: injected 5 min post-induction

| % specific uptake [2] [%] | % retained (no thrombin) [2] [%] | % retained (with thrombin) [2] [%] | in vitro clot uptake (in words) [2] | Substance | Clot/blood ([1]; Aged Clots) | Clot/heart ([1]; Aged Clots) | Clot/liver ([1]; Aged Clots) | Clot/lung ([1]; Aged Clots) | % id/g (clot) [1, 3] [% id/g] | Rel. Conc. (cpm/g of clot by dose/g animal) [1, 3] | Clot/blood ([1]; Fresh Clots) | Clot/heart ([1]; Fresh Clots) | Clot/liver ([1]; Fresh Clots) | Clot/lung ([1]; Fresh Clots) | % id/g (clot) [1, 4] [% id/g] | Rel. Conc. (cpm/g of clot by dose/g animal) [1, 4] |
| --- | --- | --- | --- | --- | --- | --- | --- | --- | --- | --- | --- | --- | --- | --- | --- | --- |
| 65.7 | 0.2 | 65.9 | – | (CF3)2(C6H3)-NQEQVSPYTLLKG-Pn216 ({(CF3)2(C6H3)}-NQEQVSPYTLLKG-Pn216; also: 99mTc complex) [^99mTc-Cmpd 10] | 6 | 16 | 5 | 6 | 2.9 ± 1.4 | 6.3 ± 2.7 | 4 | 10 | 5 | 5 | 2.9 ± 0.5 | 6.5 ± 1.2 |
| 19.8 | 0.4 | 20.2 | – | Ac-(D-N)QEQVSP(D-Y)TLL(D-K)G-Pn216 [^99mTc-Cmpd 32] | 3 | 43 | 21 | 15 | 0.7 ± 0.1 | 2.0 ± 0.4 | 10 | 26 | 27 | 11 | 1.7 ± 0.7 | 4.6 ± 1.9 |
| 10.5 | 0.1 | 10.6 | significant reduction in uptake | Ac-GQDPVKG-Pn216 (also: 99mTc complex) [^99mTc-Cmpd 48] | 1 | 32 | 26 | 109 | 0.2 ± 0.04 | 0.8 ± 0.2 | 0.6 | 2 | 3 | 0.9 | 0.3 ± 0.2 | 1.0 ± 0.5 |
| 14.7 | 0.2 | 14.9 | – | Ac-NQEQV(D-S)P(D-Y)TLL(D-K)G-Pn216 [^99mTc-Cmpd 30] | – | – | – | – | – | – | – | – | – | – | – | – |
| 13.2 | 0.1 | 13.3 | – | Ac-NQEQVSPYTLLKG-(PEG)3.4k-Pn44 (Ac-NQEQVSPYTLLKG-{PEG 3.4k-Pn44}; also: 99mTc complex) [^99mTc-Cmpd 40] | – | – | – | – | – | – | – | – | – | – | – | – |
| 64.3 | 4.3 | 68.6 | – | NQEQVSPYTLLKG-Pn216 (also: 99mTc complex) [^99mTc-Cmpd 6] | – | – | – | – | – | – | – | – | – | – | – | – |
| 63.7 | 4.3 | 68.0 | – | Z-NQEQVSP(I2-Y)TLLKG-Pn216 [^99mTc-Cmpd 25] | – | – | – | – | – | – | – | – | – | – | – | – |
| 9.7 | 0.1 | 9.8 | significant reduction in uptake | Z-NQEQVSPYG-Pn216 ({code Z}-NQEQVSPYG-Pn216; reading uncertain; also: 99mTc complex, printed as Z-NQEQVSPYG-Pn216) [^99mTc-Cmpd 18] | – | – | – | – | – | – | – | – | – | – | – | – |

| Substance | % specific uptake [2] [%] | % retained (no thrombin) [2] [%] | % retained (with thrombin) [2] [%] | in vitro clot uptake (in words) [2] | Clot/blood ([1]; Aged Clots) | Clot/heart ([1]; Aged Clots) | Clot/liver ([1]; Aged Clots) | Clot/lung ([1]; Aged Clots) | % id/g (clot) [1, 3] [% id/g] | Rel. Conc. (cpm/g of clot by dose/g animal) [1, 3] | Clot/blood ([1]; Fresh Clots) | Clot/heart ([1]; Fresh Clots) | Clot/liver ([1]; Fresh Clots) | Clot/lung ([1]; Fresh Clots) | % id/g (clot) [1, 4] [% id/g] | Rel. Conc. (cpm/g of clot by dose/g animal) [1, 4] |
| --- | --- | --- | --- | --- | --- | --- | --- | --- | --- | --- | --- | --- | --- | --- | --- | --- |
| Ac-LEFDTQSKNILG-Pn216 (also: 99mTc complex) [^99mTc-Cmpd 47] | 49.8 | 0.1 | 49.9 | – | 1 | 46 | 44 | 24 | 0.5 ± 0.3 | 1.5 ± 0.8 | 0.8 | 3 | 1 | 1 | 0.8 ± 0.7 | 2.2 ± 2.0 |
